Source: patent publication US20160355465A1, “NOVEL MODIFIED CURCUMINS AND THEIR USES” (THE RESEARCH FOUNDATION OF STATE UNIVERSITY OF NEW YORK, priority 2011, published 2016)
Read-outs that look alike come from different tables or passages of the source.

Legend:
MMP-2 = molecular target: T1, MMP-2 (Homo sapiens, UniProt P08253); assay: fluorimetric assay of MMP activity; format: biochemical
T1 sequence (P08253 110-660): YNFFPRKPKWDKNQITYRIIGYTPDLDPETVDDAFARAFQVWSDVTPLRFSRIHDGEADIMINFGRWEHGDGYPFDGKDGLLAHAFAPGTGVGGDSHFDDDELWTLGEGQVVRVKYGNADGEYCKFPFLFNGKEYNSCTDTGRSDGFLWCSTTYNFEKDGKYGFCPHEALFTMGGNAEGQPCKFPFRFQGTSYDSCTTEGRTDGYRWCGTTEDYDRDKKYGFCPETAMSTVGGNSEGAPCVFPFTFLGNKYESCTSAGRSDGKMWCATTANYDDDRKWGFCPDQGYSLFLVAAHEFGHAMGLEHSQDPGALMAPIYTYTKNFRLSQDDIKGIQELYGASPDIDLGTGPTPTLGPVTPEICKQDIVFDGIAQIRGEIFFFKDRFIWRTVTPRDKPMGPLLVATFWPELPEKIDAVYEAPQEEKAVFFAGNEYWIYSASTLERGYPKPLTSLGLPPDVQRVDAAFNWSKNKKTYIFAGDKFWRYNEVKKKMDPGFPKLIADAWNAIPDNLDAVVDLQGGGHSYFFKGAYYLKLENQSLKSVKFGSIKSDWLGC

MMP-9 = MMP-9 (Homo sapiens, UniProt P14780); assay: fluorimetric assay of MMP activity; format: biochemical; conditions: synthetic fluorescent peptide substrate Mca-Lys-Pro-Leu-Gly-Leu-Dpa-Ala-Arg-NH2
MMP-3 = MMP-3 (Homo sapiens, UniProt P08254); assay: fluorimetric assay of MMP activity; format: biochemical; conditions: synthetic fluorescent peptide substrate Mca-Lys-Pro-Leu-Gly-Leu-Dpa-Ala-Arg-NH2
MMP-7 = molecular target: T2, MMP-7 (Homo sapiens, UniProt P09237); assay: fluorimetric assay of MMP activity; format: biochemical; conditions: synthetic fluorescent peptide substrate Mca-Lys-Pro-Leu-Gly-Leu-Dpa-Ala-Arg-NH2
T2 sequence (P09237 95-267): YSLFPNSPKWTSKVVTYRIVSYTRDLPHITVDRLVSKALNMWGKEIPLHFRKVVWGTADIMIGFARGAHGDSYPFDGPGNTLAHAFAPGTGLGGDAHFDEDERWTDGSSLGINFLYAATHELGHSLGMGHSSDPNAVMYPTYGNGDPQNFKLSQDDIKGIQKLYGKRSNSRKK

MMP-12 = MMP-12 (Homo sapiens, UniProt P39900); assay: fluorimetric assay of MMP activity; format: biochemical; conditions: synthetic fluorescent peptide substrate Mca-Lys-Pro-Leu-Gly-Leu-Dpa-Ala-Arg-NH2
MMP-14 = MMP-14 (Homo sapiens, UniProt P50281); assay: fluorimetric assay of MMP activity; format: biochemical; conditions: synthetic fluorescent peptide substrate Mca-Lys-Pro-Leu-Gly-Leu-Dpa-Ala-Arg-NH2
collagen in wound tissue = assay: collagen fractions (hydroxyproline) in wound tissue of diabetic rats; format: in vivo, rat; conditions: wound tissue day 6
Source text: Biochemical measurements were made on wound tissue 6 days after creating the standardized 6 mm diameter wounds in the various groups of rats including: (1) non-diabetic controls (NDC); (2) Diabetic (DM) rats treated topically with 0.25% curcumin; (3) DM treated with 1% curcumin; (4) DM treated with 0.25% Compound 4, and (5) DM rats treated with 1% Compound 4. The wound tissues from these five different groups were then hydrolyzed (after extraction; see below) to degrade the collagen to individual amino acids, and the amino acid unique to collagen, hydroxyproline, was measured by a commercial colorimetric assay. Prior to hydrolysis, the wound tissues were extracted (at 4° C. to maintain the triple-helical conformation of the collagen molecules) to obtain first the salt-soluble fraction, then the acid-soluble fraction, leaving the insoluble fraction.

[1] = blood glucose of the rats of the collagen experiment; format: in vivo, rat; conditions: diabetic rats
MMP-1 = molecular target: T3, MMP-1 (Homo sapiens, UniProt P03956); assay: fluorimetric assay of MMP activity; format: biochemical; conditions: synthetic fluorescent peptide substrate Mca-Lys-Pro-Leu-Gly-Leu-Dpa-Ala-Arg-NH2
T3 sequence (P03956 100-469): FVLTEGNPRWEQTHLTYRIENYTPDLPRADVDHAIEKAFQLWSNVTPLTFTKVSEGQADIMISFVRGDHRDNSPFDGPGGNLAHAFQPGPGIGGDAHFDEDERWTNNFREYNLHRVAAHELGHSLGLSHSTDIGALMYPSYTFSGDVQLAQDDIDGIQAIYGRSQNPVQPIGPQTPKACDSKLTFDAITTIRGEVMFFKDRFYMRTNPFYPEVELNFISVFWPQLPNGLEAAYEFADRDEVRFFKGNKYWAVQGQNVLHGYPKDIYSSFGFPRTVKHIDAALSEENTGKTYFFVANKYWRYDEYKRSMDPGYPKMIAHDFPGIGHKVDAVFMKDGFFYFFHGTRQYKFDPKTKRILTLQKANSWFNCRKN

MMP-8 = MMP-8 (Homo sapiens, UniProt P22894); assay: fluorimetric assay of MMP activity; format: biochemical; conditions: synthetic fluorescent peptide substrate Mca-Lys-Pro-Leu-Gly-Leu-Dpa-Ala-Arg-NH2
MMP-13 = MMP-13 (Homo sapiens, UniProt P45452); assay: fluorimetric assay of MMP activity; format: biochemical; conditions: synthetic fluorescent peptide substrate Mca-Lys-Pro-Leu-Gly-Leu-Dpa-Ala-Arg-NH2
[2] = test system: MMPs 1, 2, 3, 7, 8, 9, 12, 13 and 14; assay: activity against a battery of MMPs (summary in words); format: biochemical, human
[3] = toxicity / tolerability in diabetic rats; format: in vivo; conditions: at elevated levels
Description: The following five experimental groups (n=3 rats per group) were established: Non-diabetic control rats (NDC) treated by daily application of white petrolatum jelly (“vehicle”) for 7 days, diabetic rats (D group) treated daily with vehicle alone; diabetics treated by daily topical application of either a 1% (D+1%) or a 3% (D+3%) suspension of Compound 4 in the vehicle; and diabetics treated systemically by daily oral intubation of a 1 ml suspension of Compound 4 (in carboxymethylcellulose) at a dose of 30 mg/kg over the 7-day treatment protocol (D+30 mg/kg). At the end of this time period, the circular wounds were clinically assessed by measuring diameter of the wound in millimeters, blood samples were collected, the rats were sacrificed, and skin samples collected for histological/histochemical, and biochemical assessment as described below. • 1) On day 7 after inducing wound healing, the animals were anesthetized and blood samples collected for blood glucose (one Touch Ultra Glucometer; Johnson & Johnson, New Brunswick, N.J.) and Hemoglobin A1c (A1c Now+; Bayer Health Care, Sunnyvale, Calif.) measurements. • 2) Photographs were taken for clinical observations to assess wound closure. The % reduction of the wound surface was calculated by measuring the diameter (in millimeters) of each wound before and after the treatment protocol. • 3) Wound tissues on day 7 were excised from 3 sites per rat and pooled for biochemical analysis. […] The supernates were then dialyzed against the Tris-HCl, NaCl, CaCl2 buffer, and the proteinases partially purified by ammonium sulfate precipitation and examined for levels of MMP-2 (72 kD gelatinse) and MMP-9 (92 kD gelatinase) by gelatin zymography using denatured type I collagen (gelatin) as the substrate (6). • 4) The remaining wounds were assessed histologically & histochemically by Dr. Steve McClain (McClain Labs, Smithtown, N.Y.) as follows: Biopsies of each wound site were taken and included both the wound tissue and surrounding non-wounded tissue. […]

[4] = synthetic fluorescent peptide substrate Mca-Lys-Pro-Leu-Gly-Leu-Dpa-Ala-Arg-NH2, read-out: IC50 MMP-2

Chain of MMP-9 (P14780 94-707): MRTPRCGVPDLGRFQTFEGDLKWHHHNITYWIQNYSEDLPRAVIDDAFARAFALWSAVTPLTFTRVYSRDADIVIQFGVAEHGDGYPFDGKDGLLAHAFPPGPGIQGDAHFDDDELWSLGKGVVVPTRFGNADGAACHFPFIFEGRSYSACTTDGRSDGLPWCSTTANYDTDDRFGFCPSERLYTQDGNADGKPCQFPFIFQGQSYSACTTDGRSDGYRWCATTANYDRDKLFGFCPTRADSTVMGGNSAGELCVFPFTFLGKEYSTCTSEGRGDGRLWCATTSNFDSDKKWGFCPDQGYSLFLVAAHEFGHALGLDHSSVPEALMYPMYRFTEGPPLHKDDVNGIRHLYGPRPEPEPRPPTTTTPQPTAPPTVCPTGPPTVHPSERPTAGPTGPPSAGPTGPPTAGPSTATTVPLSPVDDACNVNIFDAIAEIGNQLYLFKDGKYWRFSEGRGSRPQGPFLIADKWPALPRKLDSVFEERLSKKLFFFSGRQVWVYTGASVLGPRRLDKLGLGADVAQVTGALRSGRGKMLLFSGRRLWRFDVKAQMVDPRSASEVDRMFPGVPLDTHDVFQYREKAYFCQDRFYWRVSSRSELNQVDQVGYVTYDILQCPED
Chain of MMP-3 (P08254 100-477): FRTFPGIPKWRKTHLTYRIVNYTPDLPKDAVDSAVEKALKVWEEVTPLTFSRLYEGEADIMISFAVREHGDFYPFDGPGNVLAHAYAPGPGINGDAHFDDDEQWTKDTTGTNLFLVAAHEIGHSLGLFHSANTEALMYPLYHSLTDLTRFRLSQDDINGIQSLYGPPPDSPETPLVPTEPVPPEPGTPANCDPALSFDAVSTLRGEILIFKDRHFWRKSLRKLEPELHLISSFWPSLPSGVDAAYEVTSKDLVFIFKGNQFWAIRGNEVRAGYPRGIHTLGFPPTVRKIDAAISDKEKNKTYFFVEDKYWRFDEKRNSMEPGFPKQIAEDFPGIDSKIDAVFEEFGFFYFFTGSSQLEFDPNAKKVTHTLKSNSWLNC
Chain of MMP-8 (P22894 101-467): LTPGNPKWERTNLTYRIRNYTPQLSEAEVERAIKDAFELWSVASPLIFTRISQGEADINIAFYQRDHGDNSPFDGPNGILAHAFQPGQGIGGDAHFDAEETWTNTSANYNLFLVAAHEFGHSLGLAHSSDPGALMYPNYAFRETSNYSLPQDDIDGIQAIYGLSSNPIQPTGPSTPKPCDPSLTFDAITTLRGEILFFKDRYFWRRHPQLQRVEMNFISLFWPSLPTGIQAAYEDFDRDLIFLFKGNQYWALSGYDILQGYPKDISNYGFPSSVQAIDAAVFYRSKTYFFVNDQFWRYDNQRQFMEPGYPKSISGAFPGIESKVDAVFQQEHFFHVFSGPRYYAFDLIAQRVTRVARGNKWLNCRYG
Chain of MMP-12 (P39900 106-470): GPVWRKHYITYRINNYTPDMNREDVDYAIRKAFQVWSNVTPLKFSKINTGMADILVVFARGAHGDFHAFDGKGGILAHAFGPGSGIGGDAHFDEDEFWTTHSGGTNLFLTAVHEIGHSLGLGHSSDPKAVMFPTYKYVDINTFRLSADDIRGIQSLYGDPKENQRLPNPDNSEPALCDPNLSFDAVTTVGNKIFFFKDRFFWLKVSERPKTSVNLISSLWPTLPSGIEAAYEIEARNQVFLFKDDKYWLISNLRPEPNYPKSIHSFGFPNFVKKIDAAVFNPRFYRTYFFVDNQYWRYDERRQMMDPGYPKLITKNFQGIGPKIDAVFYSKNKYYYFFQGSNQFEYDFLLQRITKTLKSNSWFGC

Structure (SMILES) | IC50 (MMP-2) | IC50 (MMP-9) | IC50 (MMP-3) | IC50 (MMP-7) | IC50 (MMP-12) | IC50 (MMP-14) | IC50 (MMP-1) | IC50 (MMP-8) | IC50 (MMP-13) | IC50 (MMP-2; [4]) | Collagen Fractions (%) Acid-soluble (collagen in wound tissue; 0.25% topical) | Collagen Fractions (%) Insoluble (collagen in wound tissue; 0.25% topical) | Collagen Fractions (%) Salt-soluble (collagen in wound tissue; 0.25% topical) | Collagen Fractions (%) Acid-soluble (collagen in wound tissue; 1% topical) | Collagen Fractions (%) Insoluble (collagen in wound tissue; 1% topical) | Collagen Fractions (%) Salt-soluble (collagen in wound tissue; 1% topical) | Blood Glucose ([1]; 0.25% topical) | Blood Glucose ([1]; 1% topical) | anti-MMP activity (in words) [2] | toxicity [3]
c1cnc2c(c1)ccc1cccnc12 [1,10-Phen, 1,10-phenanthroline, reference compound] |  | 45 ± 12.6 µM | 77 ± 3.2 µM | 197 ± 8.8 µM | 29.5 ± 1.3 µM | 43.8 ± 4.2 µM | 42 ± 1.1 µM | 31.3 ± 0.5 µM | 50 ± 10.4 µM | 73.8 ± 1 µM |  |  |  |  |  |  |  |  |  | 
COc1cc(/C=C/C(=O)C(C(=O)/C=C/c2ccc(O)c(OC)c2)C(=O)Nc2ccccc2)ccc1O [Compound 3, 1,7-Bis(4-hydroxy-3-methoxyphenyl)-4-N-phenylaminocarbonylhepta-1E, 6E-dien-3,5-dione] |  | 8.7 ± 0.7 µM | 5.3 ± 0.7 µM | 21.5 ± 1 µM | 4.5 ± 0.5 µM | 41.3 ± 4.9 µM | 68 ± 3.2 µM | 2.5 ± 0.3 µM |  | 6.3 ± 0.9 µM |  |  |  |  |  |  |  |  | highly active | some toxicity

Second part, led by results:

IC50 (MMP-2) | IC50 (MMP-9) | IC50 (MMP-3) | IC50 (MMP-7) | IC50 (MMP-12) | IC50 (MMP-14) | IC50 (MMP-1) | IC50 (MMP-8) | IC50 (MMP-13) | IC50 (MMP-2; [4]) | Structure (SMILES) | Collagen Fractions (%) Acid-soluble (collagen in wound tissue; 0.25% topical) | Collagen Fractions (%) Insoluble (collagen in wound tissue; 0.25% topical) | Collagen Fractions (%) Salt-soluble (collagen in wound tissue; 0.25% topical) | Collagen Fractions (%) Acid-soluble (collagen in wound tissue; 1% topical) | Collagen Fractions (%) Insoluble (collagen in wound tissue; 1% topical) | Collagen Fractions (%) Salt-soluble (collagen in wound tissue; 1% topical) | Blood Glucose ([1]; 0.25% topical) | Blood Glucose ([1]; 1% topical) | anti-MMP activity (in words) [2] | toxicity [3]
5 ± 0.7 µM | 30 ± 2.9 µM | 4.7 ± 0.8 µM | 51.8 ± 2.5 µM | 2.6 ± 0.2 µM | 29.5 ± 3.2 µM |  |  |  |  | COc1cc(/C=C/C(=O)CC(=O)/C=C/c2ccc(O)c(OC)c2)ccc1O [Compound 1, 1,7-Bis(4-hydroxy-3-methoxyphenyl)hepta-1E,6E-dien-3,5-dione, reference compound] | 48.3% | 36.4% | 15.3% | 50.9% | 27.1% | 22.0% | 569 mg/dL | 540 mg/dL |  | 
 | 43.3 ± 4.4 µM | 28.3 ± 1 µM | 57.5 ± 4.6 µM | 5.3 ± 0.3 µM | 40 ± 8.4 µM | 76.3 ± 6.5 µM | 20 ± 2 µM | 26.7 ± 1.7 µM | 23.8 ± 0.9 µM | COC(=O)C(C(=O)/C=C/c1ccc(O)cc1)C(=O)/C=C/c1ccc(O)cc1 [Compound 5, 1,7-Bis(4-hydroxyphenyl)-4-methoxycarbonylhepta-1E,6E-dien-3,5-dione] |  |  |  |  |  |  |  |  |  | 
 | 55 ± 17.3 µM | 32.5 ± 2.8 µM | 48.8 ± 0.5 µM | 27.8 ± 1.7 µM | 48.5 ± 4.3 µM | 74 ± 3.5 µM | 30.8 ± 1.5 µM |  | 25.3 ± 1.3 µM | COC(=O)C(C(=O)/C=C/c1ccc(O)c(OC)c1)C(=O)/C=C/c1ccc(O)c(OC)c1 [Compound 2, 1,7-Bis(4-hydroxy-3-methoxyphenyl)-4-methoxycarbonylhepta-1E,6E-dien-3,5-dione] |  |  |  |  |  |  |  |  |  | 
